These results are taken from patent publication US11274106B2, “Topoisomerase inhibitors with antibacterial and anticancer activity” (THE BOARD OF TRUSTEES OF THE UNIVERSITY OF ILLINOIS, priority 2017, dated 2022).

The term IC50 denotes the concentration that inhibits the measured activity by half.

What all share (assay type): cell-based
For one assay, the system named is HL-60. In words: Cell viability Alamar Blue assay, HL-60. The following applies: Homo sapiens, HL-60, 72 h, Leukemia, mean ± SEM. The text has this:
(§1) Topoisomerase inhibitors such as DOX are used as single agent and in combination therapy to treat a wide-range of cancer types.

For another assay, the system named is IMR32. In words: Antiproliferative SRB assay, IMR32. The following applies: Homo sapiens, IMR-32, 72 h, Neuroblastoma, mean ± SEM.
Excerpt: as §1
(In SRB staining, fixed cells bind dye roughly in proportion to their protein.)

The test system of a further assay is HeLa. In words: Antiproliferative SRB assay, HeLa. The settings on record: Homo sapiens, 72 h, Ovarian cancer (footnote e), mean ± SEM.
Excerpt: as §1

The target in a further assay is T1, Top1cc (Homo sapiens, UniProt P11387).
T1 construct: endogenous in cells; host or cells: H460
T1 sequence (P11387 2-765 limits assumed): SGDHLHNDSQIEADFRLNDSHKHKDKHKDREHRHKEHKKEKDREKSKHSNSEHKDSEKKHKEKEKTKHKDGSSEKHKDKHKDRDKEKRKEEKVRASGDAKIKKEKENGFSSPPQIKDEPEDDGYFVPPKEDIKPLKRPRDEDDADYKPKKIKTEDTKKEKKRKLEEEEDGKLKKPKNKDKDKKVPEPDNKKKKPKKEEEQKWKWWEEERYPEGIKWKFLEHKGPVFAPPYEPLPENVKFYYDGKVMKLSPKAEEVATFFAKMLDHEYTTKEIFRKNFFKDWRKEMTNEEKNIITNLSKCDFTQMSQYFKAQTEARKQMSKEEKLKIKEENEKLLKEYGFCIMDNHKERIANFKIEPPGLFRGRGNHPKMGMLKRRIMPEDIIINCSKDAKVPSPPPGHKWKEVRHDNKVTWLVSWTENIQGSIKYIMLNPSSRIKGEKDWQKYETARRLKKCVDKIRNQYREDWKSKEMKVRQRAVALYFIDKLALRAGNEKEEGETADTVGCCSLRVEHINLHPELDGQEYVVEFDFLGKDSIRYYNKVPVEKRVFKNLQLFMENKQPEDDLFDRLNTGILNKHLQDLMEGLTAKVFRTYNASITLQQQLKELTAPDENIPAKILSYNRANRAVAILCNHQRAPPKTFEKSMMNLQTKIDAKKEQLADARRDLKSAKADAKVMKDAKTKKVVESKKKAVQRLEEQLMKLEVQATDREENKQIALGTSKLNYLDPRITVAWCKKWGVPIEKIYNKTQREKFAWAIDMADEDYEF
In words: ICE assay for Top1-DNA adducts in H460 cells. The settings on record: for Accumulation of Top1cc (ICE assay): H460 cells, 50 μM, 30 min; for Mode of topoisomerase inhibition: in vitro and cell culture experiments taken together. The source says: (§2) FIG. 3. DNM derivatives are dual Top1/Top2 inhibitors with different modes of inhibition. (a) Inhibition of decatenating ability of Top2α with increasing concentrations of ETP, 6DNM-NH3, 6DNM-Pyr, and Ph-6DNM-NH3. K, kinetoplast DNA; OC, open circular; R, relaxed. (b) Inhibition of relaxing ability of Top1 with increasing concentrations of CPT, 6DNM-NH3, 6DNM-Pyr, and Ph-6DNM-NH3. R, relaxed; S, supercoiled. (c) Detection of Top2a-DNA using the ICE Assay. Genomic DNA ([…]) of H460 cells treated with drugs (50 μM, 30 min) was applied to nitrocellulose membrane and immunoblotted for Top2a. (d) Detection of Top1-DNA adducts using ICE Assay. Same procedure as (c) using 1 μg of DNA. (e) Inhibition of ETP-induced poisoning of Top2a. H460 cells treated with indicated concentrations of inhibitor for 30 min prior to treatment with ETP (50 μM). Detection of Top2α as in (c).
(§3) The in vivo complex of enzyme (ICE) assay can be used to distinguish poisons from catalytic inhibitors. The ICE assay consists of isolating the genomic DNA of cells treated with small molecules in a manner the preserves covalent DNA-protein complexes and applying it to nitrocellulose membranes. Because topoisomerase poisons stabilize the cleavage complexes, DNA-protein complexes can be detected by immunoblotting for specific topoisomerases, whereas catalytic inhibitors produce no such result. To determine if DNM derivatives are acting as poisons or catalytic inhibitors, H460 human lung cells were exposed to 50 μM of the Top2 poison ETP, Ph-6DNM-NH3, 6DNM-NH3, and 6DNM-Pyr and assessed for their ability to stabilize Top2cc. […] In a similar fashion, next investigated was the mode of Top1 inhibition using the ICE assay (FIG. 3b).

A further assay relates to panel of cancer cells. In words: Average over panel of 10 cancer cell lines. The settings on record: 72 hour, read-out: Average (mean) IC50 over the cell line panel.
Excerpt: as §1

The target in another assay is T2, Top2cc (Homo sapiens, UniProt P11388).
T2 construct: endogenous in cells; host or cells: H460
In words: ICE assay for Top2α-DNA complexes in H460 cells. The following applies: for Accumulation of Top2cc (ICE assay): 50 μM; for Effect on ETP-induced Top2cc: pre-treatment 30 minutes prior to ETP (50 μM).
Excerpt: as §2, §3

Another assay relates to BT-474. In words: Antiproliferative SRB assay, BT-474. The following applies: for IC50: Homo sapiens, BT-474, 72 h, Breast cancer, mean ± SEM.
Excerpt: as §1

A further assay deals with Jurkat. In words: Cell viability Alamar Blue assay, Jurkat. The following applies: Homo sapiens, 72 h, Leukemia, mean ± SEM.
Excerpt: as §1

For the next assay, the system named is H460. In words: Antiproliferative SRB assay, H460. The settings on record: Homo sapiens, NCI-H460, 72 h, Lung cancer, mean ± SEM.
Excerpt: as §1

T2 sequence (P11388 whole entry): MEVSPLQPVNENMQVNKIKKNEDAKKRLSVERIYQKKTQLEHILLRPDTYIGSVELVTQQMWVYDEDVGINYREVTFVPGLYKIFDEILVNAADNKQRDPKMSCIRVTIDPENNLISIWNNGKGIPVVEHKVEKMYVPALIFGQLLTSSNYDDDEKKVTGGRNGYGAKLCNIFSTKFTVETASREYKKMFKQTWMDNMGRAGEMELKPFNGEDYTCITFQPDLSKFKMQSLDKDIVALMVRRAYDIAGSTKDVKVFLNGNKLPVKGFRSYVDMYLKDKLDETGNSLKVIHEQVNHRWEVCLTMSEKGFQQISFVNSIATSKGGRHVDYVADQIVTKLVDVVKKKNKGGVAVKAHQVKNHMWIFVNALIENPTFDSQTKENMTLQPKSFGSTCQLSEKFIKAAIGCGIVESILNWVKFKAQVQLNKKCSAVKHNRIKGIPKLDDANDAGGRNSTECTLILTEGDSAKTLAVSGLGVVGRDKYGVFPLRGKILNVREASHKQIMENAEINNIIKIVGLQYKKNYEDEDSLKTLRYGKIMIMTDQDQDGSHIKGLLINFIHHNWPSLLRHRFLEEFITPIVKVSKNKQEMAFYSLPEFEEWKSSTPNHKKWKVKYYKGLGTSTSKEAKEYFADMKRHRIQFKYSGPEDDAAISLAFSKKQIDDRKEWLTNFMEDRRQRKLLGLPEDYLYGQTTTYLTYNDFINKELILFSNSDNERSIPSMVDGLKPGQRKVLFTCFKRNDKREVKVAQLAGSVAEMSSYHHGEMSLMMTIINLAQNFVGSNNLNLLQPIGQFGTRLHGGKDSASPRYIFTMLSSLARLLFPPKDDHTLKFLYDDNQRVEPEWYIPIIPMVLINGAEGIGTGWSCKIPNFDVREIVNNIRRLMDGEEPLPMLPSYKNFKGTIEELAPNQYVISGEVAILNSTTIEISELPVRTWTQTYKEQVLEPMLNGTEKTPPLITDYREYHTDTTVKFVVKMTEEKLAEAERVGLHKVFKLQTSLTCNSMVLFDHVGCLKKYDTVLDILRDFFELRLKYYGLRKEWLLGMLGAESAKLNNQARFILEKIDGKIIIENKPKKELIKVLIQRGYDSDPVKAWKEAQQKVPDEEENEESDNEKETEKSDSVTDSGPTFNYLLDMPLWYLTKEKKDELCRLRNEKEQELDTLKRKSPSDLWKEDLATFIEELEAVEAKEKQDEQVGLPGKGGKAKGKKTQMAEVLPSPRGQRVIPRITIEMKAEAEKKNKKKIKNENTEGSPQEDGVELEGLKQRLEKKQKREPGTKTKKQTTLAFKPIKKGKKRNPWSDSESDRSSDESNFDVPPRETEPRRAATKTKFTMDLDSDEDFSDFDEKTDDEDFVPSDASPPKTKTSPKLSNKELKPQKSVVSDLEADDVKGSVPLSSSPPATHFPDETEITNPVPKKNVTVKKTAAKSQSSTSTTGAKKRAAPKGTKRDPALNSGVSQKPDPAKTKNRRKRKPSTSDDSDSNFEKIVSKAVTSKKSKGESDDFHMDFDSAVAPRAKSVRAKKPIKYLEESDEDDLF

`Cc1cc(=O)n2c3c(c4c(cc13)c1ccccc1c(=O)n4C)OCC2CN` (centres unmarked) [Compound 15]: the IC50 is 470 ± 90 nM in the assay on HL-60; 8.6 ± 0.1 nM with IMR32; 56 ± 5 nM in the assay on HeLa; 164 nM in the assay with panel of cancer cells; 690 ± 50 nM with BT-474; 290 ± 30 nM in the assay with Jurkat. In addition, the half-maximal inhibitory concentration (IC50) with H460 came out at 12 ± 2 nM. Moreover, at Top1cc, the “Accumulation of Top1cc (ICE assay)” value is recorded as “leads to the accumulation of Top1cc”. Besides, the “Mode of topoisomerase inhibition” value on Top1cc is “Top1 poison/Top2α catalytic inhibitor”. In addition, on Top2cc, the “Accumulation of Top2cc (ICE assay)” value is recorded as “only ETP treatment resulted in the accumulation of Top2cc”. The “Effect on ETP-induced Top2cc” value at Top2cc was “dose-dependent decrease in ETP-induced Top2cc”. In addition, in the assay with BT-474 (FIG. 4b, 72 hour), the “Effectiveness in BT-474 after Top1 degradation” value was “similarly reduced, however to a lesser extent”.
For `Cc1cc(=O)n(C)c2c3c4c(cc12)c(C)cc(=O)n4C(CN1CCCC1)CO3` (centres unmarked) [Compound 20], the IC50 with HL-60 is 48 ± 11 nM; with IMR32, 4.4 ± 0.3 nM; in the assay on HeLa, 27 ± 1 nM; in the assay with panel of cancer cells, 25 nM; with BT-474, 91 ± 4 nM; in the assay with Jurkat it was 20 ± 6 nM. Further, the IC50 in the assay with H460 is 6.6 ± 0.5 nM. In addition, the “Accumulation of Top1cc (ICE assay)” value at Top1cc was “neither 6DNM-NH3 nor 6DNM-Pyr, leads to the accumulation of Top1cc”. Moreover, the “Mode of topoisomerase inhibition” value at Top1cc was “dual Top1/Top2α catalytic inhibitors”. Besides, the “Accumulation of Top2cc (ICE assay)” value on Top2cc is listed as “only ETP treatment resulted in the accumulation of Top2cc”. The “Effect on ETP-induced Top2cc” value on Top2cc is on record as “dose-dependent decrease in ETP-induced Top2cc”.
